Test results reported in publication PMC10938783, “A novel pan-PI3K inhibitor KTC1101 synergizes with anti-PD-1 therapy by targeting tumor suppression and immune activation” (Molecular Cancer, 2024).

System: B16 cells gene expression
Assay: RNA-Seq (DEGs, GSEA, heatmaps) of B16 cells
Conditions: B16 cells

## COc1cc(N)cc2c1nc(C(F)F)n2-c1nc(N2CCCOCC2)nc(N2CCOCC2)n1 [KTC1101, 2-(difluoromethyl)-4-methoxy-1-(4-morpholino-6-(1,4-oxazepan-4-yl)-1,3,5-triazin-2-yl)-1H-benzo[d]imidazol-6-amine]
KTC1101 0.2μM, GSEA KEGG
  NES, mmu04970 Salivary secretion: 1.144
  NES, mmu04972 Pancreatic secretion: 0.9417
  NES, mmu05017 Spinocerebellar ataxia: -1.093
  NES, mmu05031 Amphetamine addiction: 1.031
  NES, mmu05034 Alcoholism: 0.984
  NES, mmu05100 Bacterial invasion of epithelial cells: 0.6338
  NES, mmu05132 Salmonella infection: -1.08
  NES, mmu05133 Pertussis: 0.6182
  NES, mmu05134 Legionellosis: 1.026
  NES, mmu05135 Yersinia infection: 0.5197
  NES, mmu05145 Toxoplasmosis: 1.047
  NES, mmu05160 Hepatitis C: -0.848
  NES, mmu05162 Measles: 1.0518
  NES, mmu05165 Human papillomavirus infection: 0.8359
  NES, mmu05170 Human immunodeficiency virus 1 infection: 0.8557
  NES, mmu05200 Pathways in cancer: 1.059
  NES, mmu05203 Viral carcinogenesis: 0.855
  NES, mmu05204 Chemical carcinogenesis - DNA adducts: -1.166
  NES, mmu05206 MicroRNAs in cancer: 1.025
  NES, mmu05207 Chemical carcinogenesis - receptor activation: 0.9371
  NES, mmu05210 Colorectal cancer: 0.7382
  NES, mmu05211 Renal cell carcinoma: -0.9675
  NES, mmu05212 Pancreatic cancer: -0.9022
  NES, mmu05213 Endometrial cancer: -1.003
  NES, mmu05214 Glioma: 0.9787
  NES, mmu05216 Thyroid cancer: 0.6447
  NES, mmu05218 Melanoma: 1.185
  NES, mmu05219 Bladder cancer: 0.8356
  NES, mmu05220 Chronic myeloid leukemia: 0.9551
  NES, mmu05223 Non-small cell lung cancer: -0.8178
  NES, mmu05231 Choline metabolism in cancer: 1.119
  NES, mmu05235 PD-L1 expression and PD-1 checkpoint pathway in cancer: 0.9645
  NES, mmu05412 Arrhythmogenic right ventricular cardiomyopathy: 1.0322
  NES, mmu05416 Viral myocarditis: 0.9628
  NES, mmu05417 Lipid and atherosclerosis: 1.128
  enrichmentScore, mmu00071 Fatty acid degradation: 0.2512
  enrichmentScore, mmu00310 Lysine degradation: -0.1985
  enrichmentScore, mmu00380 Tryptophan metabolism: 0.4505
  enrichmentScore, mmu00500 Starch and sucrose metabolism: -0.3977
  enrichmentScore, mmu00510 N-Glycan biosynthesis: -0.1868
  enrichmentScore, mmu00513 Various types of N-glycan biosynthesis: 0.3555
  enrichmentScore, mmu00514 Other types of O-glycan biosynthesis: 0.426
  enrichmentScore, mmu00562 Inositol phosphate metabolism: -0.271
  enrichmentScore, mmu00564 Glycerophospholipid metabolism: -0.1904
  enrichmentScore, mmu00600 Sphingolipid metabolism: -0.2721
  enrichmentScore, mmu00860 Porphyrin metabolism: -0.354
  enrichmentScore, mmu00980 Metabolism of xenobiotics by cytochrome P450: -0.3932
  enrichmentScore, mmu00982 Drug metabolism - cytochrome P450: -0.394
  enrichmentScore, mmu01250 Biosynthesis of nucleotide sugars: -0.3381
  enrichmentScore, mmu01522 Endocrine resistance: 0.2781
  enrichmentScore, mmu01523 Antifolate resistance: -0.26
  enrichmentScore, mmu02010 ABC transporters: -0.2376
  enrichmentScore, mmu03008 Ribosome biogenesis in eukaryotes: 0.1194
  enrichmentScore, mmu03015 mRNA surveillance pathway: -0.1312
  enrichmentScore, mmu03018 RNA degradation: -0.2392
  enrichmentScore, mmu03022 Basal transcription factors: -0.1746
  enrichmentScore, mmu03040 Spliceosome: -0.1926
  enrichmentScore, mmu03060 Protein export: -0.3667
  enrichmentScore, mmu03082 ATP-dependent chromatin remodeling: 0.1455
  enrichmentScore, mmu03083 Polycomb repressive complex: 0.08375
  enrichmentScore, mmu03250 Viral life cycle - HIV-1: -0.1606
  enrichmentScore, mmu03410 Base excision repair: 0.1698
  enrichmentScore, mmu03420 Nucleotide excision repair: -0.1542
  enrichmentScore, mmu03430 Mismatch repair: -0.1664
  enrichmentScore, mmu03460 Fanconi anemia pathway: -0.2915
  enrichmentScore, mmu04014 Ras signaling pathway: -0.2302
  enrichmentScore, mmu04068 FoxO signaling pathway: 0.2292
  enrichmentScore, mmu04070 Phosphatidylinositol signaling system: -0.1821
  enrichmentScore, mmu04071 Sphingolipid signaling pathway: -0.1806
  enrichmentScore, mmu04115 p53 signaling pathway: 0.2436
  enrichmentScore, mmu04120 Ubiquitin mediated proteolysis: -0.1841
  enrichmentScore, mmu04130 SNARE interactions in vesicular transport: -0.1753
  enrichmentScore, mmu04136 Autophagy - other: 0.2123
  enrichmentScore, mmu04137 Mitophagy - animal: -0.2835
  enrichmentScore, mmu04140 Autophagy - animal: -0.2
  enrichmentScore, mmu04144 Endocytosis: 0.1533
  enrichmentScore, mmu04146 Peroxisome: 0.2695
  enrichmentScore, mmu04148 Efferocytosis: 0.2467
  enrichmentScore, mmu04150 mTOR signaling pathway: -0.2361
  enrichmentScore, mmu04152 AMPK signaling pathway: -0.2382
  enrichmentScore, mmu04210 Apoptosis: 0.1949
  enrichmentScore, mmu04211 Longevity regulating pathway: 0.2589
  enrichmentScore, mmu04213 Longevity regulating pathway - multiple species: 0.2778
  enrichmentScore, mmu04215 Apoptosis - multiple species: 0.3327
  enrichmentScore, mmu04216 Ferroptosis: -0.2787
  enrichmentScore, mmu04217 Necroptosis: -0.2455
  enrichmentScore, mmu04270 Vascular smooth muscle contraction: 0.2845
  enrichmentScore, mmu04360 Axon guidance: 0.2929
  enrichmentScore, mmu04392 Hippo signaling pathway - multiple species: 0.3945
  enrichmentScore, mmu04514 Cell adhesion molecules: 0.3446
  enrichmentScore, mmu04520 Adherens junction: 0.258
  enrichmentScore, mmu04530 Tight junction: -0.1527
  enrichmentScore, mmu04550 Signaling pathways regulating pluripotency of stem cells: 0.3252
  enrichmentScore, mmu04611 Platelet activation: 0.2724
  enrichmentScore, mmu04612 Antigen processing and presentation: 0.2974
  enrichmentScore, mmu04622 RIG-I-like receptor signaling pathway: 0.2627
  enrichmentScore, mmu04623 Cytosolic DNA-sensing pathway: 0.3684
  enrichmentScore, mmu04650 Natural killer cell mediated cytotoxicity: 0.2671
  enrichmentScore, mmu04658 Th1 and Th2 cell differentiation: 0.359
  enrichmentScore, mmu04660 T cell receptor signaling pathway: 0.174
  enrichmentScore, mmu04662 B cell receptor signaling pathway: 0.2749
  enrichmentScore, mmu04666 Fc gamma R-mediated phagocytosis: -0.2944
  enrichmentScore, mmu04670 Leukocyte transendothelial migration: 0.2117
  enrichmentScore, mmu04714 Thermogenesis: -0.2154
  enrichmentScore, mmu04720 Long-term potentiation: 0.2329
  enrichmentScore, mmu04723 Retrograde endocannabinoid signaling: 0.2816
  enrichmentScore, mmu04726 Serotonergic synapse: 0.3744
  enrichmentScore, mmu04727 GABAergic synapse: 0.3552
  enrichmentScore, mmu04728 Dopaminergic synapse: 0.2754
  enrichmentScore, mmu04730 Long-term depression: 0.3483
  enrichmentScore, mmu04750 Inflammatory mediator regulation of TRP channels: 0.2734
  enrichmentScore, mmu04910 Insulin signaling pathway: 0.2919
  enrichmentScore, mmu04912 GnRH signaling pathway: 0.3311
  enrichmentScore, mmu04915 Estrogen signaling pathway: 0.2687
  enrichmentScore, mmu04916 Melanogenesis: 0.2873
  enrichmentScore, mmu04917 Prolactin signaling pathway: 0.2949
  enrichmentScore, mmu04920 Adipocytokine signaling pathway: 0.3361
  enrichmentScore, mmu04929 GnRH secretion: -0.3021
  enrichmentScore, mmu04930 Type II diabetes mellitus: 0.385
  enrichmentScore, mmu04932 Non-alcoholic fatty liver disease: -0.2292
  enrichmentScore, mmu04934 Cushing syndrome: 0.2719
  enrichmentScore, mmu04936 Alcoholic liver disease: 0.2103
  enrichmentScore, mmu04960 Aldosterone-regulated sodium reabsorption: 0.4243
  enrichmentScore, mmu04961 Endocrine and other factor-regulated calcium reabsorption: 0.3281
  enrichmentScore, mmu04962 Vasopressin-regulated water reabsorption: 0.3811
  enrichmentScore, mmu04970 Salivary secretion: 0.3709
  enrichmentScore, mmu04972 Pancreatic secretion: 0.3054
  enrichmentScore, mmu05017 Spinocerebellar ataxia: -0.2487
  enrichmentScore, mmu05031 Amphetamine addiction: 0.3398
  enrichmentScore, mmu05034 Alcoholism: 0.2877
  enrichmentScore, mmu05100 Bacterial invasion of epithelial cells: 0.1912
  enrichmentScore, mmu05132 Salmonella infection: -0.223
  enrichmentScore, mmu05133 Pertussis: 0.2038
  enrichmentScore, mmu05134 Legionellosis: 0.3271
  enrichmentScore, mmu05135 Yersinia infection: 0.1452
  enrichmentScore, mmu05145 Toxoplasmosis: 0.3104
  enrichmentScore, mmu05160 Hepatitis C: -0.1925
  enrichmentScore, mmu05162 Measles: 0.3001
  enrichmentScore, mmu05165 Human papillomavirus infection: 0.2105
  enrichmentScore, mmu05170 Human immunodeficiency virus 1 infection: 0.2282
  enrichmentScore, mmu05200 Pathways in cancer: 0.2563
  enrichmentScore, mmu05203 Viral carcinogenesis: 0.2271
  enrichmentScore, mmu05204 Chemical carcinogenesis - DNA adducts: -0.3876
  enrichmentScore, mmu05206 MicroRNAs in cancer: 0.2735
  enrichmentScore, mmu05207 Chemical carcinogenesis - receptor activation: 0.2555
  enrichmentScore, mmu05210 Colorectal cancer: 0.2135
  enrichmentScore, mmu05211 Renal cell carcinoma: -0.2497
  enrichmentScore, mmu05212 Pancreatic cancer: -0.2279
  enrichmentScore, mmu05213 Endometrial cancer: -0.2692
  enrichmentScore, mmu05214 Glioma: 0.2912
  enrichmentScore, mmu05216 Thyroid cancer: 0.217
  enrichmentScore, mmu05218 Melanoma: 0.3678
  enrichmentScore, mmu05219 Bladder cancer: 0.2813
  enrichmentScore, mmu05220 Chronic myeloid leukemia: 0.2762
  enrichmentScore, mmu05223 Non-small cell lung cancer: -0.2111
  enrichmentScore, mmu05231 Choline metabolism in cancer: 0.3293
  enrichmentScore, mmu05235 PD-L1 expression and PD-1 checkpoint pathway in cancer: 0.291
  enrichmentScore, mmu05412 Arrhythmogenic right ventricular cardiomyopathy: 0.3444
  enrichmentScore, mmu05416 Viral myocarditis: 0.3314
  enrichmentScore, mmu05417 Lipid and atherosclerosis: 0.3016
[…], KTC 0.2μM
  NES: Coronavirus disease - COVID-19: 2.023
  enrichmentScore: Coronavirus disease - COVID-19: 0.5276
